Reference: US10815210B2, “Benzocyclobutane derivatives useful as dual SGLT1 / SGLT2 modulators” (Janssen Pharmaceutica NV, priority 2016, dated 2020)

How the values were obtained:
human SGLT1 = molecular target: T1, human SGLT1 (Homo sapiens, UniProt P13866); assay: SGLT1 assay: Na-dependent 14C-AMG uptake in CHO-K1 cells stably expressing human SGLT1; format: cell-based; details: 500 μM AMG, 2 hours at 37° C.
T1 construct: expressed in transfected cells; host or cells: CHO-K1
T1 sequence (P13866 1-664): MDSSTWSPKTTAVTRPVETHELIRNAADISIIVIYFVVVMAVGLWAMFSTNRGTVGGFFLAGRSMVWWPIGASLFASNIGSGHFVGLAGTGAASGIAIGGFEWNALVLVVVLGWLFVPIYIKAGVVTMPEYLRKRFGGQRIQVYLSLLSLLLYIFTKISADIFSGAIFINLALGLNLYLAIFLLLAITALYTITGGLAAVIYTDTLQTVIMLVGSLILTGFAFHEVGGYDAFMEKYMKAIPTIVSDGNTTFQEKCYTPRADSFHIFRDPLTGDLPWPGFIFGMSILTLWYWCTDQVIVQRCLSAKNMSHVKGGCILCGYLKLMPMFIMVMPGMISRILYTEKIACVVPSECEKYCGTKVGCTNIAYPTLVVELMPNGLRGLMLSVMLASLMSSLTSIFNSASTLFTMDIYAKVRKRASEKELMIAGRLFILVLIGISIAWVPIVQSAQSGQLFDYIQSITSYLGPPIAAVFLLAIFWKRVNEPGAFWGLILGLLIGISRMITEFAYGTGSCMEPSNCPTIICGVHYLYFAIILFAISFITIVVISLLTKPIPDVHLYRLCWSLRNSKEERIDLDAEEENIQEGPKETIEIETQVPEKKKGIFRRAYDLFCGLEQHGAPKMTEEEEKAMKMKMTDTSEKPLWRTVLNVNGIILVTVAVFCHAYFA
In short: (§1)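 CHO-K1 cells stably expressing human SGLT1 or SGLT2, pretreated 24 h with 10 mM Na-butyrate, were exposed 10 min to compound (0.001-10 μM) in Na-containing HEPES/Tris buffer pH 7.4. Uptake of ^14C-AMG (500 μM final) ran 2 h at 37° C, then Na-dependent uptake was counted by scintillation.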

human SGLT2 = molecular target: T2, human SGLT2 (Homo sapiens, UniProt P31639); assay: SGLT2 assay: Na-dependent 14C-AMG uptake in CHO-K1 cells stably expressing human SGLT2; format: cell-based; details: 500 μM AMG, 2 hours at 37° C.
T2 construct: expressed in transfected cells; host or cells: CHO-K1
T2 sequence (P31639 1-672): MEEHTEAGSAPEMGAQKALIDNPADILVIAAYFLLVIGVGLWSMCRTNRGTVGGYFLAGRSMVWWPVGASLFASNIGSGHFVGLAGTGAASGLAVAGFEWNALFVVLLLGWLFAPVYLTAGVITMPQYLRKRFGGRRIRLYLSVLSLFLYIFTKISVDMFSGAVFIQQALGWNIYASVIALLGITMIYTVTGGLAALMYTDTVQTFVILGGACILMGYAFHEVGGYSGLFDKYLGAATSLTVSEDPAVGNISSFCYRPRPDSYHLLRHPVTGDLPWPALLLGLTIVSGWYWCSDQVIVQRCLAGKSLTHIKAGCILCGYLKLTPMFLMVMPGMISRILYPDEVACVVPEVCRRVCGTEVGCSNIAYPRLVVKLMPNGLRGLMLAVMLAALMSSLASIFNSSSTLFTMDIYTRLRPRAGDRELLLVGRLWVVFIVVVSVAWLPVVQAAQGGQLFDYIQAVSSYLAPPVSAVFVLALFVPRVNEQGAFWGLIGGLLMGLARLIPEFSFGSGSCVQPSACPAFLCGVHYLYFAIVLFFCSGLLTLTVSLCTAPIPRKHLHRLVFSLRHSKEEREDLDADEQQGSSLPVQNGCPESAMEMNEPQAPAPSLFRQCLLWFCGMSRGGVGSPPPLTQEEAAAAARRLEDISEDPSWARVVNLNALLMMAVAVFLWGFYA
In short: as §1

Row | IC50 (human SGLT1) [nM] | IC50 (human SGLT2) [nM] | SMILES
1 | 80 | 1 | [2H]C1([2H])c2ccc(Cc3cc([C@@H]4O[C@H](CO)[C@@H](O)[C@H](O)[C@H]4O)ccc3Cl)cc2C1([2H])[2H] [Compound 123]
2 | 52 | 4 | Cc1ccc([C@@H]2O[C@H](CO)[C@@H](F)[C@H](O)[C@H]2O)cc1Cc1ccc2c(c1)CC2 [Compound 126]
3 | 1 | 2 | CCc1cc(O)c([C@@H]2O[C@H](CO)[C@@H](F)[C@H](O)[C@H]2O)cc1Cc1ccc2c(c1)CC2 [Compound 127]
4 | 47 | 8 | CCc1ccc([C@@H]2O[C@H](CO)[C@@H](F)[C@H](O)[C@H]2O)cc1Cc1ccc2c(c1)CC2 [Compound 128]
5 | 4 | 1 | OC[C@H]1O[C@@H](c2cc(Cc3ccc4c(c3)CC4)c(Cl)cc2O)[C@H](O)[C@@H](O)[C@@H]1F [Compound 129]
6 | 15 | 1 | Cc1cc(O)c([C@@H]2O[C@H](CO)[C@@H](F)[C@H](O)[C@H]2O)cc1Cc1ccc2c(c1)CC2 [Compound 130]
7 | 49 | 1 | CCOc1cc(C)c(Cc2ccc3c(c2)CC3)cc1[C@@H]1O[C@H](CO)[C@@H](F)[C@H](O)[C@H]1O [Compound 131]
8 | 18 | 1 | CCOc1cc(Cl)c(Cc2ccc3c(c2)CC3)cc1[C@@H]1O[C@H](CO)[C@@H](F)[C@H](O)[C@H]1O [Compound 132]
9 | 15 | 1 | COc1cc(Cl)c(Cc2ccc3c(c2)CC3)cc1[C@@H]1O[C@H](CO)[C@@H](F)[C@H](O)[C@H]1O [Compound 133]
10 | 36 | 2 | OC[C@H]1O[C@@H](c2ccc(Cl)c(Cc3ccc4c(c3)CC4)c2)[C@H](O)[C@@H](O)[C@@H]1F [Compound 134]
11 | 3 | 3 | COc1cc(O)c([C@@H]2O[C@H](CO)[C@@H](F)[C@H](O)[C@H]2O)cc1Cc1ccc2c(c1)CC2 [Compound 135]
12 | 9 | 1 | COc1cc(OC)c([C@@H]2O[C@H](CO)[C@@H](F)[C@H](O)[C@H]2O)cc1Cc1ccc2c(c1)CC2 [Compound 136]
13 | 20 | 1 | CCOc1cc(OC)c(Cc2ccc3c(c2)CC3)cc1[C@@H]1O[C@H](CO)[C@@H](F)[C@H](O)[C@H]1O [Compound 137]
14 | 50 | 2 | OC[C@H]1O[C@@H](c2ccc(Cl)c(C(F)(F)c3ccc4c(c3)CC4)c2)[C@H](O)[C@@H](O)[C@@H]1O [Compound 140]
15 | 33 | 2 | Cc1ccc([C@@H]2O[C@H](CO)[C@@H](O)[C@H](O)[C@H]2O)cc1C(F)(F)c1ccc2c(c1)CC2 [Compound 141]
16 | 133 | 23 | Cc1ccc([C@@H]2O[C@H](CO)[C@@H](F)[C@H](O)[C@H]2O)cc1C(F)(F)c1ccc2c(c1)CC2 [Compound 142]
